Data on 31 compounds can be found in US10300071B2, “Compositions and methods for inhibition of mycobacteria” (priority 2014, dated 2019).

Values after ≈ are worked out from the molar mass of the structure shown. Like-named read-outs stand apart in the source and are kept apart here.

Data set [1] has as its system Mtb strain mc^2-7000. In words: microbe, parasite or virus in culture. It counts as cell-based, Mycobacterium tuberculosis. To be noted: for MIC: 6 days incubation at 37° C., resazurin, read on the 7th day; for whole Mycobacterium tuberculosis cell inhibition: preliminary studies of commercially available herbicides. Background: The colour change of resazurin is a common sign of viable cells or microbes.

The target of data set [2] is Mtb AccD6 (Mycobacterium tuberculosis, UniProt P9WQH5). The data set is described as follows: biochemical. The class given is biochemical. Particulars: for IC50: 300 μM malonyl-CoA, inhibitor 10 μM to 2000 μM; for Mtb AccD6 inhibition: preliminary studies of commercially available herbicides.
Chain of Mtb AccD6 (P9WQH5 whole entry, looked up): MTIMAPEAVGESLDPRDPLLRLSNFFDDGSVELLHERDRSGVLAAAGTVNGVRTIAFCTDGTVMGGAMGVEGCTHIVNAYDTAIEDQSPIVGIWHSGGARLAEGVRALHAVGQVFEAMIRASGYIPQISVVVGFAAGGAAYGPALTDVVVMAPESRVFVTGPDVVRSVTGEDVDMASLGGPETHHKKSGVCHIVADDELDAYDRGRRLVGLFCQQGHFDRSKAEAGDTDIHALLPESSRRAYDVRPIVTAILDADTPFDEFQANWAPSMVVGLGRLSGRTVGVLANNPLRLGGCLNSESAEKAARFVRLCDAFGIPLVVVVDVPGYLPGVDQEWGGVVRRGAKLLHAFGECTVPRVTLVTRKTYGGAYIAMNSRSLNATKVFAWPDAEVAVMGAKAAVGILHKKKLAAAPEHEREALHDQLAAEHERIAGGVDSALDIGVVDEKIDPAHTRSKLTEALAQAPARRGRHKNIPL
The test system of data set [3] is human fibroblast.
For data set [4], the system named is S. cerevisiae.
Setting [5] is: Mycobacterium tuberculosis, 144 h, read-out: MIC.

As to `COC(=O)COc1ccc(Oc2nc3ccc(F)cc3s2)cc1` [NZ-303, methyl 2-{4-[(6-fluoro-1,3-benzothiazol-2-yl)oxy]phenoxy}acetate], the MIC in data set [1] (setting [5]) was found to be 4.5 µM. Besides, the inhibition at 20 µM in data set [2] (read-out: inhibition at 20 uM) was 50%. Also, the “concentrations at which not toxic, human fibroblast cytotoxicity” value in data set [3] is at least 100 µM.

As for `CONC(=O)C(O)c1ccc(Oc2nc3ccc(Cl)cc3s2)cc1` (stereo not shown) [NZ-338, 2-{4-[(6-chloro-1,3-benzothiazol-2-yl)oxy]phenyl}-2-hydroxy-N-methoxyacetamide], in data set [1] (setting [5]), the MIC was determined as 25 µM (≈ 9.12 µg/mL). Moreover, in data set [2] (read-out: IC50), the IC50 was determined as 7200 nM. In addition, the “concentrations at which not toxic, human fibroblast cytotoxicity” value in data set [3] was at least 100 µM.

For the compound `CN(C)C(=O)Nc1ccc(Oc2cnc3cc(Cl)ccc3n2)cc1` [NZ-343, 1-{4-[(6-chloroquinoxalin-2-yl)oxy]phenyl}-3,3-dimethylurea], in data set [1] (setting [5]), the MIC was found to be 25 µM (≈ 8.57 µg/mL). Also, the IC50 in data set [2] (read-out: IC50) stood at 400 nM. Besides, the “concentrations at which not toxic, human fibroblast cytotoxicity” value in data set [3] was at least 100 µM.

With `CC(C)NC(=O)Nc1ccc(Oc2cnc3cc(F)ccc3n2)cc1` [NZ-345, 1-{4-[(6-fluoroquinoxalin-2-yl)oxy]phenyl}-3-(propan-2-yl)urea], the MIC in data set [1] (setting [5]) worked out at 25 µM (≈ 8.51 µg/mL). For the same compound, the IC50 in data set [2] (read-out: IC50) is 500 nM. Also, the “concentrations at which not toxic, human fibroblast cytotoxicity” value in data set [3] is at least 100 µM.

With `CC(C)NC(=O)Nc1ccc(Oc2ccc3cc(Cl)ccc3n2)cc1` [NZ-346, 1-{4-[(6-chloroquinolin-2-yl)oxy]phenyl}-3-(propan-2-yl)urea], the MIC in data set [1] (setting [5]) is 50 µM (≈ 17.8 µg/mL). For the same compound, the IC50 in data set [2] (read-out: IC50) came out at 400 nM. For the same compound, the “concentrations at which not toxic, human fibroblast cytotoxicity” value in data set [3] is at least 100 µM.

Consider `CC(C)(C)OC(=O)NCc1ccc(Oc2nc3ccc(Cl)cc3s2)cc1` [NZ-347, tert-butyl N-({4-[(6-chloro-1,3-benzothiazol-2-yl)oxy]phenyl}methyl)carbamate], for which the MIC in data set [1] (setting [5]) amounted to 15 µM (≈ 5.86 µg/mL). Moreover, the “concentrations at which not toxic, s. cerevisiae cytotoxicity” value in data set [4] is at least 100 µM. The IC50 result in data set [2] is reported as “Not Active”.

Take `NCc1ccc(Oc2nc3ccc(Cl)cc3s2)cc1` [NZ-348, {4-[(6-chloro-1,3-benzothiazol-2-yl)oxy]phenyl}methanamine]: the MIC in data set [1] (setting [5]) was found to be 2 µM (≈ 0.582 µg/mL). In addition, the “concentrations at which not toxic, s. cerevisiae cytotoxicity” value in data set [4] was 25 to 50 µM. Also, the IC50 entry in data set [2] is listed as “Not Active”.

For the compound `CN(C)C(=O)NCc1ccc(Oc2nc3ccc(Cl)cc3s2)cc1` [NZ-349, 1-({4-[(6-chloro-1,3-benzothiazol-2-yl)oxy]phenyl}methyl)-3,3-dimethylurea], the MIC in data set [1] (setting [5]) is 8 µM (≈ 2.89 µg/mL). In addition, the “concentrations at which not toxic, s. cerevisiae cytotoxicity” value in data set [4] is at least 100 µM. Moreover, the IC50 in data set [2] (read-out: IC50) was determined as 7000 nM.

Consider `CNC(=O)NCc1ccc(Oc2nc3ccc(Cl)cc3s2)cc1` [NZ-350, 1-({4-[(6-chloro-1,3-benzothiazol-2-yl)oxy]phenyl}methyl)-3-methylurea], for which, in data set [1], the MIC result is given as “Not Active”. The “concentrations at which not toxic, s. cerevisiae cytotoxicity” value in data set [4] was at least 100 µM. In addition, the IC50 in data set [2] (read-out: IC50) was found to be 1600 nM.

`CC(C)(C)OC(=O)Nc1ccc(Oc2nc3ccc(Cl)cc3s2)cc1` [NZ-351, tert-butyl N-{4-[(6-chloro-1,3-benzothiazol-2-yl)oxy]phenyl}carbamate]: the MIC result in data set [1] is listed as “Not Active”. The “concentrations at which not toxic, s. cerevisiae cytotoxicity” value in data set [4] was at least 100 µM. Besides, in data set [2], the IC50 result is listed as “Not Active”.

With `Nc1ccc(Oc2nc3ccc(Cl)cc3s2)cc1` [NZ-352, 4-[(6-chloro-1,3-benzothiazol-2-yl)oxy]aniline], in data set [1] (setting [5]), the MIC came out at 1.5 µM (≈ 0.415 µg/mL). For the same compound, the “concentrations at which not toxic, s. cerevisiae cytotoxicity” value in data set [4] lay in the range of 25 to 50 µM. The IC50 entry in data set [2] is listed as “Not Active”.

Take `CNC(=O)Nc1ccc(Oc2nc3ccc(Cl)cc3s2)cc1` [NZ-353, 1-{4-[(6-chloro-1,3-benzothiazol-2-yl)oxy]phenyl}-3-methylurea]: the MIC entry in data set [1] is recorded as “Not Active”. Further, in data set [4], the “concentrations at which not toxic, s. cerevisiae cytotoxicity” value was at least 100 µM. Besides, the IC50 in data set [2] (read-out: IC50) stood at 4000 nM.

In the case of `CN(C)C(=O)Nc1ccc(Oc2nc3ccc(Cl)cc3s2)cc1` [NZ-354, 1-{4-[(6-chloro-1,3-benzothiazol-2-yl)oxy]phenyl}-3,3-dimethylurea], the MIC in data set [1] (setting [5]) stood at 1 µM (≈ 0.348 µg/mL). Also, the “concentrations at which not toxic, s. cerevisiae cytotoxicity” value in data set [4] fell in the range of 50 to 100 µM. The IC50 in data set [2] (read-out: IC50) was determined as 7300 nM.

For the compound `COC(=O)C(OC)c1ccc(Oc2nc3ccc(Cl)cc3s2)cc1` (stereo not shown) [NZ-355, methyl 2-{4-[(6-chloro-1,3-benzothiazol-2-yl)oxy]phenyl}-2-methoxyacetate], the MIC in data set [1] (setting [5]) was 4.5 µM (≈ 1.64 µg/mL). Also, the “concentrations at which not toxic, s. cerevisiae cytotoxicity” value in data set [4] was at least 100 µM. Also, in data set [2] (read-out: IC50), the IC50 was 20000 nM.

With `COC(C(=O)O)c1ccc(Oc2nc3ccc(Cl)cc3s2)cc1` (stereo not shown) [NZ-356, 2-{4-[(6-chloro-1,3-benzothiazol-2-yl)oxy]phenyl}-2-methoxyacetic acid], the MIC in data set [1] (setting [5]) was 25 µM (≈ 8.74 µg/mL). For the same compound, the “concentrations at which not toxic, s. cerevisiae cytotoxicity” value in data set [4] was at least 100 µM. For the same compound, the IC50 in data set [2] (read-out: IC50) came to 1700 nM.

With `CONC(=O)C(OC)c1ccc(Oc2nc3ccc(Cl)cc3s2)cc1` (stereo not shown) [NZ-357, 2-{4-[(6-chloro-1,3-benzothiazol-2-yl)oxy]phenyl}-N,2-dimethoxyacetamide], in data set [1] (setting [5]), the MIC was found to be 20 µM (≈ 7.58 µg/mL). In data set [4], the “concentrations at which not toxic, s. cerevisiae cytotoxicity” value is at least 100 µM. For the same compound, in data set [2] (read-out: IC50), the IC50 came to 3600 nM.

Consider `Cc1ccc2nc(Oc3ccc(NC(=O)NC(C)C)cc3)sc2c1` [NZ-358, 1-{4-[(6-methyl-1,3-benzothiazol-2-yl)oxy]phenyl}-3-(propan-2-yl)urea], for which the MIC in data set [1] (setting [5]) was 5.8 µM (≈ 1.98 µg/mL). The “concentrations at which not toxic, s. cerevisiae cytotoxicity” value in data set [4] is at least 100 µM. In addition, in data set [2] (read-out: IC50), the IC50 amounted to 20000 nM.

Regarding `CC(C)NC(=O)Nc1ccc(Oc2nc3ccc(Br)cc3s2)cc1` [NZ-359, 1-{4-[(6-bromo-1,3-benzothiazol-2-yl)oxy]phenyl}-3-(propan-2-yl)urea], the MIC in data set [1] (setting [5]) was above 50 µM. Further, the “concentrations at which not toxic, s. cerevisiae cytotoxicity” value in data set [4] was at least 100 µM. The IC50 in data set [2] (read-out: IC50) turned out to be 8400 nM.

`CC(C)NC(=O)Nc1ccc(Oc2nc3ccccc3s2)cc1` [NZ-360, 1-[4-(1,3-benzothiazol-2-yloxy)phenyl]-3-(propan-2-yl)urea]: the MIC in data set [1] (setting [5]) came to 4.3 µM (≈ 1.41 µg/mL). Further, the “concentrations at which not toxic, s. cerevisiae cytotoxicity” value in data set [4] is at least 100 µM. Also, the 50% inhibitory concentration (IC50) in data set [2] (read-out: IC50) was 13300 nM.

Regarding `CC(C(=O)NCC(O)CO)c1ccc(Oc2nc3ccc(Cl)cc3s2)cc1` (stereo not shown) [NZ-372, 2-{4-[(6-chloro-1,3-benzothiazol-2-yl)oxy]phenyl}-N-(2,3-dihydroxypropyl)propanamide], the MIC in data set [1] (setting [5]) worked out at 4.67 µM (≈ 1.9 µg/mL). Moreover, the “concentrations at which not toxic, s. cerevisiae cytotoxicity” value in data set [4] is at least 100 µM. For the same compound, the IC50 in data set [2] (read-out: IC50) was found to be 2750 nM.

For the compound `CC(C)NC(=O)Cc1ccc(Oc2nc3ccc(F)cc3s2)cc1O` [NZ-405, 2-{4-[(6-fluoro-1,3-benzothiazol-2-yl)oxy]-2-hydroxyphenyl}-N-(propan-2-yl)acetamide], the MIC in data set [1] (setting [5]) was 17.5 µM (≈ 6.31 µg/mL). In addition, the 50% inhibitory concentration (IC50) in data set [2] (read-out: IC50) worked out at 150 nM.

With `CC(C)NC(=O)Cc1ccc(O)cc1Oc1nc2ccc(F)cc2s1` [NZ-406, 2-{2-[(6-fluoro-1,3-benzothiazol-2-yl)oxy]-4-hydroxyphenyl}-N-(propan-2-yl)acetamide], the “% at 50 uM” value in data set [1] (50 uM) was found to be 46% at 50 uM. For the same compound, the IC50 result in data set [2] is “Not Active”.

On to `CC(C)NC(=O)Cc1ccc(Oc2nc3cc(F)c(F)cc3s2)cc1O` [NZ-407, 2-{4-[(5,6-difluoro-1,3-benzothiazol-2-yl)oxy]-2-hydroxyphenyl}-N-(propan-2-yl)acetamide], for which, in data set [1] (setting [5]), the MIC was 11.7 µM (≈ 4.43 µg/mL). Also, the IC50 in data set [2] (read-out: IC50) is 110 nM.

For `CNC(=O)C(C)c1ccc(Oc2nc3ccc(F)cc3s2)cc1O` (stereo not shown) [NZ-408, 2-{4-[(6-fluoro-1,3-benzothiazol-2-yl)oxy]-2-hydroxyphenyl}-N-methylpropanamide], the MIC in data set [1] (setting [5]) came out at 6.5 µM (≈ 2.25 µg/mL). Moreover, in data set [2] (read-out: IC50), the IC50 turned out to be 210 nM.

Consider `C=CCO/N=C(\CCC)C1=C(O)C(C(=O)OC)C(C)(C)CC1=O` (stereo not shown) [alloxydim, reference compound], for which the “whole Mycobacterium tuberculosis cell inhibition” value in data set [1] is given as “none exhibited whole Mycobacterium tuberculosis cell inhibition”. Also, in data set [2], the “Mtb AccD6 inhibition” value is “only haloxyfop exhibited Mtb AccD6 inhibition”.

For `CCCC(=NOCC)C1=C(O)CC(C2CCCSC2)CC1=O` (stereo not shown) [cycloxydim, reference compound], the “whole Mycobacterium tuberculosis cell inhibition” value in data set [1] is listed as “none exhibited whole Mycobacterium tuberculosis cell inhibition”. Further, the “Mtb AccD6 inhibition” value in data set [2] is recorded as “only haloxyfop exhibited Mtb AccD6 inhibition”.

Turning to `CC(Oc1ccc(Oc2ccc(Cl)cc2Cl)cc1)C(=O)O` (stereo not shown) [diclofop, reference compound], the “whole Mycobacterium tuberculosis cell inhibition” value in data set [1] is on record as “none exhibited whole Mycobacterium tuberculosis cell inhibition”. The “Mtb AccD6 inhibition” value in data set [2] is given as “only haloxyfop exhibited Mtb AccD6 inhibition”.

Turning to `CC(Oc1ccc(Oc2ccc(C(F)(F)F)cn2)cc1)C(=O)O` (stereo not shown) [fluazifop, reference compound], the “whole Mycobacterium tuberculosis cell inhibition” value in data set [1] is “none exhibited whole Mycobacterium tuberculosis cell inhibition”. Further, in data set [2], the “Mtb AccD6 inhibition” value is given as “only haloxyfop exhibited Mtb AccD6 inhibition”.

As for `CC(C)=NOCCOC(=O)C(C)Oc1ccc(Oc2cnc3cc(Cl)ccc3n2)cc1` (stereo not shown) [propaquizafop, 2-{[(propan-2-ylidene)amino]oxy}ethyl 2-{4-[(6-chloroquinoxalin-2-yl)oxy]phenoxy}propanoate, reference compound], the MIC in data set [1] (setting [5]) amounted to 1.56 µM (≈ 0.692 µg/mL). Also, the IC50 in data set [2] (read-out: IC50) stood at 2100 nM.

On to `CCC/C(=N\OCC)C1=C(O)CC(CC(C)SCC)CC1=O` (stereo not shown) [sethoxydim, reference compound], for which the “whole Mycobacterium tuberculosis cell inhibition” value in data set [1] is given as “none exhibited whole Mycobacterium tuberculosis cell inhibition”. In addition, in data set [2], the “Mtb AccD6 inhibition” value is given as “only haloxyfop exhibited Mtb AccD6 inhibition”.

Consider cyhalofop [reference compound], for which the “whole Mycobacterium tuberculosis cell inhibition” value in data set [1] was “none exhibited whole Mycobacterium tuberculosis cell inhibition”. For the same compound, the “Mtb AccD6 inhibition” value in data set [2] was “only haloxyfop exhibited Mtb AccD6 inhibition”.

What is called inhibition is the change of the read-out against control, counted positive when it falls. By IC50 is commonly meant the concentration needed to halve the response being measured.
